Source: US12612441B2, “Polypeptide and therapeutic uses thereof” (Vitalixir (Beijing) Co., Ltd, priority 2019, dated 2026)
Entries after “also recorded” stand apart in the source; their conditions may differ. Where no end group is shown, it is not given here. [ ]: non-standard residue; d: D form. Aib = CC(C)(N)C(=O)O

Key:
db/db mice [1] = assay: Blood glucose lowering in db/db mice (Example 12); type: in vivo; conditions: db/db male mice, 35 nmol/kg subcutaneous single dose, 0-10 hours, AUC, vs PBS control; FIG. 9
Method: The feeding conditions of db/db mice were the same as described in Example 7. The db/db male mice (GemPharmatech, 7 weeks old) had one-week to acclimate to the environmental conditions of the test facility. Three days before the test (−3 day˜−1 day) baseline blood glucose and body weight were recorded. The mice were randomly grouped based on three-day blood glucose and body weight, with 6 mice in each group. Mice were injected subcutaneously with PBS (5 ml/kg, control group) or peptide compounds 42, 115, 178 (35 nmol/kg) at 10:00 in the morning. Blood was collected at 0 hour before drug administration, and 1.5, 4, 7, and 10 hours after administration, and blood glucose was measured using a OneTouch glucose meter (Johnson & Johnson) and test strips. By using time as the abscissa and the blood glucose value at different time points as the ordinate blood glucose curves were drawn, and the areas under the curve (AUC) were calculated to compare the hypoglycemic effects and duration of action of the peptide compounds.

DIO obese mice = DIO obese mice 14-day body composition study (Example 14); type: in vivo, C57BL/6 mice; conditions: 1.5 nmole per animal s.c. once a day for 14 days; for lean mass: EchoMRI day 0 vs day 15, FIG. 13; for fat mass: EchoMRI day 0 vs day 15, vs PBS control, FIG. 13
Method: The DIO obese mice experiment was conducted by Shanghai WuXi AppTec New Drug Development Co., Ltd. The animal feeding was the same as described in Example 13. The animals were adapted to grasping and subcutaneous injection for 1 week at 40 weeks of age. The body weight and food intake were measured for 3 consecutive days before the experiment, and the fasting blood glucose of the animals was measured 1 day before the experiment. The animals with abnormal blood glucose were removed, and the remaining animals were grouped according to the random blood glucose and body weight of the animals (using body weight as the main reference indicator), with 6 animals per group and an average weight of 47 grams. During the experiment, each group of the animals was injected subcutaneously with PBS, or 1.5 nmole of compound 35 or compound 40 per animal once a day, and the dosing period was 14 days. An EchoMRI body composition analyzer was used to measure the body fat content of the animals before and after the experiment.

db/db mice [2] = assay: Blood glucose lowering in db/db mice (Example 8); type: in vivo; conditions: db/db male mice, 30 nmol/kg subcutaneous single dose, blood glucose 0-10 hours, AUC, vs PBS control; FIG. 2
Method: The feeding conditions of db/db mice were the same as described in Example 7. The db/db male mice (8 weeks old) were given one week to acclimate to the environmental conditions of the test facility. Baseline blood glucose and body weight were recorded for three days before the experiment (−3 day to −1 day). The mice were randomly grouped based on their three-day blood glucose and body weight, with 6 mice in each group. Mice were injected subcutaneously with PBS (5 ml/kg, control group) or the peptide compounds 31, 35, 38, 44 and 49 (30 nmol/kg) respectively at 10:00 in the morning. Blood was collected at 0 hour before drug administration, and 1, 2, 4, 6, 8, and 10 hours after administration, and blood glucose was measured using a OneTouch glucose meter (Johnson & Johnson) and test strips. Blood glucose curves were plotted with time as the abscissa and the blood glucose value at different time point as the ordinate, and the areas under the curve (AUC) were calculated.

| Substance | blood glucose (db/db mice [1]) | lean mass (DIO obese mice) | fat mass (DIO obese mice) | blood glucose (db/db mice [2]) |
| --- | --- | --- | --- | --- |
| Y(aib)EGTFTSDLSI(aib)LEKEAVRLFIEWLLAG-NH2 (YXEGTFTSDLSIXLEKEAVRLFIEWLLAG; Aib; C-terminal amide; MOD_RES (2)..(2) X=aminoisobutyric aicd; MOD_RES (13)..(13) X=aminoisobutyric aicd; MOD_RES (29)..(29) AMIDATION, C-termianl amidation) [Compound 42] | significantly reduced blood glucose |  |  |  |
| Y(aib)EGTFTSDLSI(aib)LEKEAVRLFIEWLLAGGPS-NH2 (YXEGTFTSDLSIXLEKEAVRLFIEWLLAGGPS; Aib; C-terminal amide; MOD_RES (2)..(2) X=aminoisobutyric aicd; MOD_RES (13)..(13) X=aminoisobutyric aicd; MOD_RES (32)..(32) AMIDATION, C-termianl amidation) [Compound 178] | significantly reduced blood glucose |  |  |  |
| Y(aib)EGTFTSDLSI(aib)LEKEAVRLFIEWLLAGGPSSGA-NH2 (YXEGTFTSDLSIXLEKEAVRLFIEWLLAGGPSSGA; Aib; C-terminal amide; MOD_RES (2)..(2) X=aminoisobutyric aicd; MOD_RES (13)..(13) X=aminoisobutyric aicd; MOD_RES (35)..(35) AMIDATION, C-termianl amidation) [Compound 115] | significantly reduced blood glucose |  |  |  |
| Y(aib)EGTFTSDLSI(aib)LEKEAVRLFIEWLLAGGPSSGAPPPK-NH2 (YXEGTFTSDLSIXLEKEAVRLFIEWLLAGGPSSGAPPPK; Aib; C-terminal amide; MOD_RES (2)..(2) X=aminoisobutyric aicd; MOD_RES (13)..(13) X=aminoisobutyric aicd; MOD_RES (39)..(39) AMIDATION, C-termianl amidation) [Compound 40] |  | basically unchanged | effectively reduced fat mass; also recorded: decreased markedly |  |
| Y(aib)EGTFTSDLSIALEKEAVRLFIEWLLAGGPSSGAPPPK-NH2 (Y[Aib]EGTFTSDLSIALEKEAVRLFIEWLLAGGPSSGAPPPK-NH2; N-terminus assumed; SMILES CC[C@H](C)[C@H](NC(=O)[C@H](CO)NC(=O)[C@H](CC(C)C)NC(=O)[C@H](CC(=O)O)NC(=O)[C@H](CO)NC(=O)[C@@H](NC(=O)[C@H](Cc1ccccc1)NC(=O)[C@@H](NC(=O)CNC(=O)[C@H](CCC(=O)O)NC(=O)C(C)(C)NC(=O)[C@@H](N)Cc1ccc(O)cc1)[C@@H](C)O)[C@@H](C)O)C(=O)N[C@@H](C)C(=O)N[C@@H](CC(C)C)C(=O)N[C@@H](CCC(=O)O)C(=O)N[C@@H](CCCCN)C(=O)N[C@@H](CCC(=O)O)C(=O)N[C@@H](C)C(=O)N[C@H](C(=O)N[C@@H](CCCNC(=N)N)C(=O)N[C@@H](CC(C)C)C(=O)N[C@@H](Cc1ccccc1)C(=O)N[C@H](C(=O)N[C@@H](CCC(=O)O)C(=O)N[C@@H](Cc1c[nH]c2ccccc12)C(=O)N[C@@H](CC(C)C)C(=O)N[C@@H](CC(C)C)C(=O)N[C@@H](C)C(=O)NCC(=O)NCC(=O)N1CCC[C@H]1C(=O)N[C@@H](CO)C(=O)N[C@@H](CO)C(=O)NCC(=O)N[C@@H](C)C(=O)N1CCC[C@H]1C(=O)N1CCC[C@H]1C(=O)N1CCC[C@H]1C(=O)N[C@@H](CCCCN)C(N)=O)[C@@H](C)CC)C(C)C) [Compound 35] |  | basically unchanged | effectively reduced fat mass; also recorded: decreased markedly | significantly reduced the blood glucose |
| Y(aib)EGTFTSDLSIALEKEAVRLFIEWLLAGGPSSGAPPPS-NH2 (Y[Aib]EGTFTSDLSIALEKEAVRLFIEWLLAGGPSSGAPPPS-NH2; N-terminus assumed; SMILES CC[C@H](C)[C@H](NC(=O)[C@H](CO)NC(=O)[C@H](CC(C)C)NC(=O)[C@H](CC(=O)O)NC(=O)[C@H](CO)NC(=O)[C@@H](NC(=O)[C@H](Cc1ccccc1)NC(=O)[C@@H](NC(=O)CNC(=O)[C@H](CCC(=O)O)NC(=O)C(C)(C)NC(=O)[C@@H](N)Cc1ccc(O)cc1)[C@@H](C)O)[C@@H](C)O)C(=O)N[C@@H](C)C(=O)N[C@@H](CC(C)C)C(=O)N[C@@H](CCC(=O)O)C(=O)N[C@@H](CCCCN)C(=O)N[C@@H](CCC(=O)O)C(=O)N[C@@H](C)C(=O)N[C@H](C(=O)N[C@@H](CCCNC(=N)N)C(=O)N[C@@H](CC(C)C)C(=O)N[C@@H](Cc1ccccc1)C(=O)N[C@H](C(=O)N[C@@H](CCC(=O)O)C(=O)N[C@@H](Cc1c[nH]c2ccccc12)C(=O)N[C@@H](CC(C)C)C(=O)N[C@@H](CC(C)C)C(=O)N[C@@H](C)C(=O)NCC(=O)NCC(=O)N1CCC[C@H]1C(=O)N[C@@H](CO)C(=O)N[C@@H](CO)C(=O)NCC(=O)N[C@@H](C)C(=O)N1CCC[C@H]1C(=O)N1CCC[C@H]1C(=O)N1CCC[C@H]1C(=O)N[C@@H](CO)C(N)=O)[C@@H](C)CC)C(C)C) [Compound 31] |  |  |  | significantly reduced the blood glucose |
